According to patent publication US6555547B1, “Method for treating a patient with neoplasia by treatment with a vinca alkaloid derivative” (Cell Pathways, Inc., priority 2000, dated 2003):
Entries after “also recorded” stand apart in the source; their conditions may differ.

Legend:
[1] = target: T1, cGMP binding sites of GST-cGB-PDE5 fusion protein (Homo sapiens, UniProt O76074); assay: cGMP binding assay; conditions: 3H-cGMP 2 μM
T1 construct: made in house; host or cells: E. coli BL21 (DE3)

[2] = tested on: Peak B from SW480, HTB-26, and LnCAP; assay: Peak B cGMP PDE activity from SW480, HTB-26 and LnCAP (FPLC); format: biochemical; conditions: 100 nM; Peak B from SW480, HTB-26, LnCAP
Experimental: The novel Peak B was also isolated from two other neoplastic cell lines, a breast cancer cell line, HTB-26, and a prostate cancer cell line, LnCAP, by a procedure similar to the one above used to isolate it from SW480. The protocol was modified in several respects. To provide even greater reproducibility to allow comparison of different cell lines, a Pharmacia AKTA FPLC was used to control sample loading and elution on an 18 mL DEAE TrisAcryl M column. SW840 was run by this same procedure multiple times to provide a reference of Peak B. 200-400 million cells of SW480 were used for the profiles. 70 million cells of LnCAP were used for a profile (see FIGS. 22 and 23), and in a separate experiment 32 million cells of HTB-26 were used for a profile (see FIGS. 20 and 21). After re-suspending cells in homogenization buffer, samples were manually homogenized. FPLC buffer A was 8 mM TRIS-acetate, 5 mM Mg acetate, 0.1 mM EDTA, pH 7.5 and buffer B was 8 mM TRIS-acetate, 5 mM Mg acetate, 0.1 mM EDTA, 1 M Na acetate, pH 7.5. Supernatants were loaded onto the column at 1 mL per minute, followed by a wash with 60 mL buffer A at 1 mL per minute. A gradient was run from 0-15% buffer B in 60 mL, 15-50% buffer B in 60 mL, and 50-100% buffer B in 16 mL. During the gradient 1.5 mL fractions were collected.

[3] = tested on: LNCaP prostate tumor cell line; assay: Histone-associated DNA fragmentation in prostate tumor cells; format: cell-based; conditions: 50 μM, up to 4 days, free base
Experimental: The androgen-sensitive prostate tumor cell line, LNCaP (from ATCC (Rockville, Md.)) was propagated under standard conditions using […] medium containing 5% fetal calve serum and 2 mM glutamine. Primary prostate epithelial cell cultures (PrEC) derived from normal prostate (from Clonetics Inc. (San Diego, Calif.)) were grown under the same conditions as the tumor cell line except a serum-free medium optimized for the growth of such cultures was used (Clonetics Inc). For the experiments, LNCaP or PrEC cells were seeded in 96 well plates at a density of 10,000 cells per well. […] After various drug treatment times (4, 24, 48, 72, or 99 hours) the cells were lysed and processed for measurement of histone-associated DNA as an indicator of apoptotic cell death (see, Piazza et al., Cancer Research 57: 2452-2459, 1997).

[4] = Toxicity study in dogs (capsules); format: in vivo
[5] = tested on: Calu-6 adenocarcinoma cell line; assay: Cell growth, alone and in combination with vinca alkaloid; format: cell-based, human; conditions: for Lower concentration required on continuous exposure than 1-hour exposure for same effect: FIGS. 28-29, 32-33; for Effect when combined with vinca alkaloid: both cell lines (Calu-6, H460), 1-hour and continuous exposures
Experimental: (§1) Exisulind and Compound I were analyzed using two human lung cancer cell lines; H460, a large cell carcinoma with a doubling time of 16 hours, and Calu-6, an adenocarcinoma with a doubling time of 21 hours. Exisulind and Compound I were analyzed alone and in combination with the vinca alkaloid, Navelbine™ vinorelbine. The cytotoxic agents were administered for 1 hour, while exisulind and Compound I were administered for either 1 hour or given as a continuous exposure.
(§2) Cells were plated on day 0 and allowed to attach. On day 1, the cells were exposed to one of the cytotoxic agents dissolved in media pre-warmed to 37° C. and incubated at 37° C. for 1 hour. The cells were then washed twice and re-fed pre-warned media with or without either exisulind or Compound I and incubated for one hour at 37° C. After the one-hour incubation, the cells were washed twice, re-fed, and returned to the incubator; the continuous exposure cultures were not washed and re-fed. Appropriate controls were included for each condition. […] All data points were done in triplicate and the mean graphed as a percent of control growth.
(§3) Exisulind and Compound I were first dissolved in DMSO and brought to the desired concentrations by slowly adding warm media to the drug-DMSO solution to prevent precipitation.

[6] = tested on: H460 large cell carcinoma cell line; assay: as above; format: cell-based, human
Experimental: as §1, §2, §3

[7] = Seven-day dose-range finding study in rats; format: in vivo
[8] = rat, in vivo, 2000 mg/kg/day
[9] = Acute toxicity study in rats; format: in vivo
[10] = in vivo
[11] = tested on: PrEC primary prostate epithelial cell cultures; assay: Histone-associated DNA fragmentation in normal prostate epithelial cells; format: cell-based; conditions: 50 μM, up to 4 days
Experimental: The androgen-sensitive prostate tumor cell line, LNCaP (from ATCC (Rockville, Md.)) was propagated under standard conditions using […] medium containing 5% fetal calve serum and 2 mM glutamine. Primary prostate epithelial cell cultures (PrEC) derived from normal prostate (from Clonetics Inc. (San Diego, Calif.)) were grown under the same conditions as the tumor cell line except a serum-free medium optimized for the growth of such cultures was used (Clonetics Inc). For the experiments, LNCaP or PrEC cells were seeded in 96 well plates at a density of 10,000 cells per well. After 24 hours, the cells were treated with either vehicle (0.1% DMSO) or 50 μM Compound I (free base) solubilized in DMSO. After various drug treatment times (4, 24, 48, 72, or 99 hours) the cells were lysed and processed for measurement of histone-associated DNA as an indicator of apoptotic cell death (see, Piazza et al., Cancer Research 57: 2452-2459, 1997).

[12] = tested on: PKG activity in HCT116 colon cancer cells; assay: PKG assay on lysates of drug-treated HCT116 cells; format: cell-based
Excerpt: To test the effect of cGMP-specific PDE inhibition on neoplasia containing the β-catenin mutation, HCT116 colon cancer cells were employed. HCT116 is known to contain the β-catenin mutation, but is known not to contain the APC mutation.
The same procedure is used to grow the HCT116 cells as is used in the SW480 procedure described above. In this experiment, only exisulind and controls were used.

[13] = tested on: β-catenin and PKG in SW480 cells; assay: Western blot of β-catenin and PKG in SW480 cells; format: cell-based, human; conditions: SW480, 48 hours
Experimental: SW480 cells treated with exisulind as described previously are harvested from the microfuge tubes by rinsing once with ice-cold PBS. The cells are lysed by modified RIPA buffer for 15 minutes with agitation. The cell lysate is spun down in a cold room. The supernatants are transferred to fresh microcentrifuge tubes immediately after spinning. BioRad DC Protein Assay (Temecula, Calif.) is performed to determine the protein concentrations in samples. The samples are normalized for protein concentration, as described above.
50 μg of each sample is loaded onto a 10% SDS gel. SDS-PAGE is performed, and the proteins then are transferred to a nitrocellulose membrane. The blotted nitrocellulose membrane is blocked in freshly prepared TBST containing 5% nonfat dry milk for one hour at room temperature with constant agitation.
A goat-anti-PKG primary antibody is diluted to the recommended concentration/dilution in fresh TBST/5% nonfat dry milk. The nitrocellulose membrane is placed in the primary antibody solution and incubated one hour at room temperature with agitation. The nitrocellulose membrane is washed three times for ten minutes each with TBST. […]
This observation was made by culturing SW480 cells with either 200, 400 or 600 μM exisulind or vehicle (0.1% DMSO). […] Immuno-reactive protein can be detected by Western blot. […]

[14] = Side effects of exisulind in patients; format: in vivo
Excerpt: This effect is reversible, and liver enzymes return to normal levels when the administered dose of exisulind returns to the traditionally recommended level or when treatment is discontinued. The most serious side effects of vinca alkaloid derivatives, on the other hand, are myelosuppressions.

T1 sequence (O76074 46-539 limits assumed): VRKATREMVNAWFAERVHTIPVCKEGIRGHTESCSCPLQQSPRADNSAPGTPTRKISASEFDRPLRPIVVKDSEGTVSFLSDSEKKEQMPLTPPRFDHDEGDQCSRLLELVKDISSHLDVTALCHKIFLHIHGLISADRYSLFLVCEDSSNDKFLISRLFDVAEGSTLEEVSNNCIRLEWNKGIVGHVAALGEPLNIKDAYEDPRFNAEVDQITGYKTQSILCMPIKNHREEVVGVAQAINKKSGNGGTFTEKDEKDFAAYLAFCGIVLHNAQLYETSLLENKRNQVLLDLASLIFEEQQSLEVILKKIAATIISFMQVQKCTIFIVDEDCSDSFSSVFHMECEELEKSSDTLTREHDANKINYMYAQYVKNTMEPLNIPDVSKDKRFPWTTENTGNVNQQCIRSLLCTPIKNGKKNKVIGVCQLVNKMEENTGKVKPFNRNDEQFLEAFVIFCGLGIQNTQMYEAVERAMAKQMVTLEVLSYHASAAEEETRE

O=C(O)C1CCN(c2nc(NCc3ccc4c(c3)OCO4)c3cc(Cl)ccc3n2)CC1 [Compound E4021]
Competition with cGMP for binding of GST-cGB-PDE5 [1]: do not bind to the cGMP binding sites of PDE5
Sensitivity of Peak B cGMP PDE activity [2]: resistant

CC1=C(CC(=O)NCc2ccccc2)c2cc(F)ccc2/C1=C\c1ccncc1.Cl [Compound I, (Z)-5-fluoro-2-methyl-(4-pyridylidene)-3-(N-benzyl)indenylacetamide hydrochloride]
Histone-associated fragmented DNA [3]: A significant increase in fragmented DNA was detected after 24 hours of treatment; also recorded: time-dependent increase in the amount of histone-associated fragmented DNA
oral LD50 [4]: greater than 1000 mg/kg
Toxicity, single dose in capsules ([4]; 1000 mg/kg): no signs of toxicity
Drug-related effects, single dose and seven consecutive doses ([4]; 1000 mg/kg/day): At no time in either dosing phase were any obvious signs of drug-related effects observed
Strength in inhibiting cell growth relative to exisulind ([5]; Calu-6): 80-100 fold
% of control growth ([5]; Calu-6, 1-hour exposure, 5 mcg/ml): 47%
Lower concentration required on continuous exposure than 1-hour exposure for same effect [5]: 25 fold
Effect when combined with vinca alkaloid [5]: additive cytotoxic effect
Strength in inhibiting cell growth relative to exisulind [6]: 80-100 fold
Seven-day toxicity findings ([7]; 50 mg/kg/day): no observable signs of toxicity
Seven-day toxicity findings ([7]; 500 mg/kg/day): treatment-related effects were limited to an increase in absolute and relative liver weights in female rats
Seven-day toxicity findings ([7]; 2000 mg/kg/day): labored breathing and/or abnormal respiratory sounds, decreased weights gains and food consumption in male rats, and increased liver weights in female rats
Seven-day hematology, blood chemistry, microscopic pathology ([7]; any dose level): No hematological or blood chemistry changes nor any microscopic pathology changes
28-day histopathological evaluation [8]: traces of follicular cell hypertrophy, increased numbers of mitotic figures (suggestive of possible cell proliferation) in the thyroid gland and mild centrilobular hypertrophy in the liver
28-day liver weights [8]: statistically significant increase in liver weights
28-day thyroid weights [8]: statistically significant increases in thyroid weights
intraperitoneal LD50 [9]: greater than 1000 mg/kg
oral LD50 [9]: > 4000 mg/kg
Acute toxicity, single intraperitoneal dose ([9]; intraperitoneal, 1000 mg/kg): reduced body weight gain, with mesenteric adhesions seen in some animals
Acute toxicity, single oral dose ([9]; oral, 4000 mg/kg): body weight gains were slightly reduced
Acute toxicity, single oral doses ([9]; oral, up to and including 2000 mg/kg): no observable signs of toxicity
Safety [10]: safe in animal studies and in a single, escalating dose human study
DNA fragmentation [11]: did not affect DNA fragmentation for up to 4 days of treatment

CC1=C(CC(=O)O)c2cc(F)ccc2/C1=C\c1ccc(S(C)(=O)=O)cc1 [Exisulind, 5-fluoro-2-methyl-1-(p-methylsulfonylbenzylidene)-3-indenylacetic acid]
Competition with cGMP for binding of GST-cGB-PDE5 [1]: do not bind to the cGMP binding sites of PDE5
PKG activation relative to control [12]: yielded PKG that was phosphorylated to a greater extent than the corresponding controls
β-catenin and PKG levels by Western blot [13]: causes the drop of β-catenin and the increase of PKG
Side effects at recommended dose ([14]; 300-600 mg/day): no significant side effects
Side effects above recommended dose ([14]; doses higher than the recommended therapeutic levels, reversible): can lead to elevated levels of liver enzymes
Lower concentration required on continuous exposure than 1-hour exposure for same effect [5]: ~10 fold
activity at 400 µg/mL ([5]; Homo sapiens, Calu-6, 1 h, Calu-6, 1-hour exposure, 400 μg/ml, read-out: % of control growth): 54%
Effect when combined with vinca alkaloid [5]: additive cytotoxic effect
